The numbers were not newly measured in patent publication US7915306B2, “Macrocyclic compounds useful as pharmaceuticals” (Eisai Co., Ltd., priority 2002, dated 2011), which cites them from elsewhere.

SMILES strings stand for the structures. Where two headings read alike, the source gives them in different places.

The conditions of data set [1]: mouse plasma.
The conditions of data set [2]: human plasma.

As for `COc1cc(O)c2c(c1)/C=C/C[C@H](O)[C@H](O)C(=O)/C=C\C[C@H](C)OC2=O` [F152], in the data set on Map/Erk kinase (MEK), the “inhibition of Map/Erk kinase (MEK)” value is “inhibit”. Besides, the “biological stability (enone isomerization)” value in data set [1] and in data set [2] was “susceptible to enone isomerization” throughout.
